Measurements as given in patent US12077503B2, “Substituted cyclic amides and their use as herbicides” (FMC CORPORATION, priority 2015, dated 2024).

Key:
Format in all cases: in vivo
[1] = system: barnyardgrass (Echinochloa crus-galli); experiment: Test G Pre-Emergence Protocol; conditions: Echinochloa crus-galli, pre-emergence, 312 h, evaluated after 13 days; for pest or weed control at 15.625 g/ha: 15.625 g ai/ha, read-out: Barnyard grass damage rating (100=total damage to plant; 0=no damage to plant); for pest or weed control at 62.5 g/ha: 62.5 g ai/ha, 100=total damage to plant, 0=no damage to plant, read-out: plant damage rating, Barnyardgrass; for pest or weed control at 250 g/ha: 250 g ai/ha, read-out: Barnyardgrass damage rating (100=total damage to plant; 0=no damage to plant)
Summary of the method: (§1)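 Spraying took place one day after sowing, at 15.625, 62.5 or 250 g/ha, using an acetone/water (50:50) spray solution containing 0.5% Tween 20. Plants were kept under glasshouse conditions (24/16 °C, 14 h light, 65% humidity, watered twice daily), and injury was rated 0–100 at day 13.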

[2] = system: corn (Zea mays); experiment: Test G Pre-Emergence Protocol; conditions: Zea mays, pre-emergence, 312 h, evaluated after 13 days; for plant injury at 15.625 g/ha: 15.625 g ai/ha; for plant injury at 15.625 g/ha / plant injury at 250 g/ha: read-out: Corn damage rating (100=total damage to plant; 0=no damage to plant); for plant injury at 62.5 g/ha: 62.5 g ai/ha, 100=total damage to plant, 0=no damage to plant, read-out: plant damage rating, Corn; for plant injury at 250 g/ha: 250 g ai/ha
Summary of the method: as §1

[3] = system: giant foxtail (Setaria faberi); experiment: Test G Pre-Emergence Protocol; conditions: Setaria faberi, pre-emergence, 312 h, evaluated after 13 days; for pest or weed control at 15.625 g/ha: 15.625 g ai/ha; for pest or weed control at 15.625 g/ha / pest or weed control at 250 g/ha: read-out: Foxtail, Giant damage rating (100=total damage to plant; 0=no damage to plant); for pest or weed control at 62.5 g/ha: 62.5 g ai/ha, 100=total damage to plant, 0=no damage to plant, read-out: plant damage rating, Foxtail, Giant; for pest or weed control at 250 g/ha: 250 g ai/ha
Summary of the method: as §1

[4] = system: ivy-leaved morning glory (Ipomoea hederacea); experiment: Test G Pre-Emergence Protocol; conditions: Ipomoea, pre-emergence, 312 h, evaluated after 13 days; for pest or weed control at 15.625 g/ha: 15.625 g ai/ha, read-out: Morning-glory, Ivy-leaved damage rating (100=total damage to plant; 0=no damage to plant); for pest or weed control at 62.5 g/ha: 62.5 g ai/ha, 100=total damage to plant, 0=no damage to plant, read-out: plant damage rating, Morningglory, Ivy-leaved; for pest or weed control at 250 g/ha: 250 g ai/ha, read-out: Morningglory, Ivy-leaved damage rating (100=total damage to plant; 0=no damage to plant)
Summary of the method: as §1

[5] = system: redroot pigweed (Amaranthus retroflexus); experiment: Test G Pre-Emergence Protocol; conditions: Amaranthus retroflexus, pre-emergence, 312 h, evaluated after 13 days; for pest or weed control at 15.625 g/ha: 15.625 g ai/ha; for pest or weed control at 15.625 g/ha / pest or weed control at 250 g/ha: read-out: Pigweed, Redroot damage rating (100=total damage to plant; 0=no damage to plant); for pest or weed control at 62.5 g/ha: 62.5 g ai/ha, 100=total damage to plant, 0=no damage to plant, read-out: plant damage rating, Pigweed, Redroot; for pest or weed control at 250 g/ha: 250 g ai/ha
Summary of the method: as §1

[6] = system: velvetleaf (Abutilon theophrasti); experiment: Test G Pre-Emergence Protocol; conditions: Abutilon theophrasti, pre-emergence, 312 h, evaluated after 13 days; for pest or weed control at 15.625 g/ha: 15.625 g ai/ha; for pest or weed control at 15.625 g/ha / pest or weed control at 250 g/ha: read-out: Velvetleaf damage rating (100=total damage to plant; 0=no damage to plant); for pest or weed control at 62.5 g/ha: 62.5 g ai/ha, 100=total damage to plant, 0=no damage to plant, read-out: plant damage rating, Velvetleaf; for pest or weed control at 250 g/ha: 250 g ai/ha
Summary of the method: as §1

[7] = system: barnyardgrass (Echinochloa crus-galli); experiment: Test G Post-Emergence Protocol; conditions: Echinochloa crus-galli, post-emergence, 312 h; for pest or weed control at 15.625 g/ha: 15.625 g ai/ha, evaluated after 13 days (100=total damage to plant; 0=no damage to plant), read-out: Barnyardgrass damage rating; for pest or weed control at 62.5 g/ha: 62.5 g ai/ha, read-out: Barnyardgrass damage rating (100=total damage to plant; 0=no damage to plant); for pest or weed control at 62.5 g/ha / pest or weed control at 250 g/ha: evaluated after 13 days; for pest or weed control at 250 g/ha: 250 g ai/ha, read-out: damage to plant, Barnyardgrass (100=total damage to plant; 0=no damage to plant)
Summary of the method: (§2)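 Foliar application was made 8 days after sowing, using an aqueous spray of the active in acetone/water (50:50) with 0.5% Tween 20, at doses of 15.625, 62.5 or 250 g/ha. Injury was assessed 13 days later, where 100 meant the plant was fully damaged.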

[8] = system: corn (Zea mays); experiment: Test G Post-Emergence Protocol; conditions: Zea mays, post-emergence, 312 h; for plant injury at 15.625 g/ha: 15.625 g ai/ha, evaluated after 13 days (100=total damage to plant; 0=no damage to plant), read-out: Corn damage rating; for plant injury at 62.5 g/ha: 62.5 g ai/ha, read-out: Corn damage rating (100=total damage to plant; 0=no damage to plant); for plant injury at 62.5 g/ha / plant injury at 250 g/ha: evaluated after 13 days; for plant injury at 250 g/ha: 250 g ai/ha, read-out: damage to plant, Corn (100=total damage to plant; 0=no damage to plant)
Summary of the method: as §2

[9] = system: giant foxtail (Setaria faberi); experiment: Test G Post-Emergence Protocol; conditions: Setaria faberi, post-emergence, 312 h; for pest or weed control at 15.625 g/ha: 15.625 g ai/ha, evaluated after 13 days (100=total damage to plant; 0=no damage to plant), read-out: Foxtail, Giant damage rating; for pest or weed control at 62.5 g/ha: 62.5 g ai/ha, read-out: Foxtail, Giant damage rating (100=total damage to plant; 0=no damage to plant); for pest or weed control at 62.5 g/ha / pest or weed control at 250 g/ha: evaluated after 13 days; for pest or weed control at 250 g/ha: 250 g ai/ha, read-out: damage to plant, Foxtail, Giant (100=total damage to plant; 0=no damage to plant)
Summary of the method: as §2

[10] = system: ivy-leaved morning glory (Ipomoea hederacea); experiment: Test G Post-Emergence Protocol; conditions: Ipomoea, post-emergence, 312 h; for pest or weed control at 15.625 g/ha: 15.625 g ai/ha, evaluated after 13 days (100=total damage to plant; 0=no damage to plant), read-out: Morningglory, Ivy-leaved damage rating; for pest or weed control at 62.5 g/ha: 62.5 g ai/ha, read-out: Morningglory, Ivy-leaved damage rating (100=total damage to plant; 0=no damage to plant); for pest or weed control at 62.5 g/ha / pest or weed control at 250 g/ha: evaluated after 13 days; for pest or weed control at 250 g/ha: 250 g ai/ha, read-out: damage to plant, Morningglory, Ivy-leaved (100=total damage to plant; 0=no damage to plant)
Summary of the method: as §2

[11] = system: redroot pigweed (Amaranthus retroflexus); experiment: Test G Post-Emergence Protocol; conditions: Amaranthus retroflexus, post-emergence, 312 h; for pest or weed control at 15.625 g/ha: 15.625 g ai/ha, evaluated after 13 days (100=total damage to plant; 0=no damage to plant), read-out: Pigweed, Redroot damage rating; for pest or weed control at 62.5 g/ha: 62.5 g ai/ha, read-out: Pigweed, Redroot damage rating (100=total damage to plant; 0=no damage to plant); for pest or weed control at 62.5 g/ha / pest or weed control at 250 g/ha: evaluated after 13 days; for pest or weed control at 250 g/ha: 250 g ai/ha, read-out: damage to plant, Pigweed, Redroot (100=total damage to plant; 0=no damage to plant)
Summary of the method: as §2

[12] = system: velvetleaf (Abutilon theophrasti); experiment: Test G Post-Emergence Protocol; conditions: Abutilon theophrasti, post-emergence, 312 h; for pest or weed control at 15.625 g/ha: 15.625 g ai/ha, evaluated after 13 days (100=total damage to plant; 0=no damage to plant), read-out: Velvetleaf damage rating; for pest or weed control at 62.5 g/ha: 62.5 g ai/ha, read-out: Velvetleaf damage rating (100=total damage to plant; 0=no damage to plant); for pest or weed control at 62.5 g/ha / pest or weed control at 250 g/ha: evaluated after 13 days; for pest or weed control at 250 g/ha: 250 g ai/ha, read-out: damage to plant, Velvetleaf (100=total damage to plant; 0=no damage to plant)
Summary of the method: as §2

SMILES	pest or weed control at 15.625 g/ha [1] [%]	pest or weed control at 62.5 g/ha [1] [%]	pest or weed control at 250 g/ha [1] [%]	plant injury at 15.625 g/ha [2] [%]	plant injury at 62.5 g/ha [2] [%]	plant injury at 250 g/ha [2] [%]	pest or weed control at 15.625 g/ha [3] [%]	pest or weed control at 62.5 g/ha [3] [%]	pest or weed control at 250 g/ha [3] [%]	pest or weed control at 15.625 g/ha [4] [%]	pest or weed control at 62.5 g/ha [4] [%]	pest or weed control at 250 g/ha [4] [%]	pest or weed control at 15.625 g/ha [5] [%]	pest or weed control at 62.5 g/ha [5] [%]	pest or weed control at 250 g/ha [5] [%]	pest or weed control at 15.625 g/ha [6] [%]	pest or weed control at 62.5 g/ha [6] [%]	pest or weed control at 250 g/ha [6] [%]	pest or weed control at 15.625 g/ha [7] [%]	pest or weed control at 62.5 g/ha [7] [%]	further results
CN1C[C@@H](c2ccc(C(F)(F)F)cc2)[C@H](C(=O)Nc2ccnc(C(F)(F)F)c2)C1=O (racemic) [Compound 1638]	0	0	0	0	0	0	0	0	0	0	0	0	0	0	0	0	0	0	0	0	pest or weed control at 250 g/ha [7]: 0%; plant injury at 15.625 g/ha [8]: 0%; plant injury at 62.5 g/ha [8]: 0%; plant injury at 250 g/ha [8]: 0%; pest or weed control at 15.625 g/ha [9]: 0%; pest or weed control at 62.5 g/ha [9]: 0%; pest or weed control at 250 g/ha [9]: 0%; pest or weed control at 15.625 g/ha [10]: 0%; pest or weed control at 62.5 g/ha [10]: 0%; pest or weed control at 250 g/ha [10]: 0%; pest or weed control at 15.625 g/ha [11]: 0%; pest or weed control at 62.5 g/ha [11]: 0%; pest or weed control at 250 g/ha [11]: 0%; pest or weed control at 15.625 g/ha [12]: 0%; pest or weed control at 62.5 g/ha [12]: 0%; pest or weed control at 250 g/ha [12]: 0%
COc1nccc(NC(=O)[C@@H]2C(=O)N(C)C[C@H]2c2ccc(C(F)(F)F)cc2)n1 (racemic) [Compound 1640]	0	0	0	0	0	0	0	0	0	0	0	0	0	0	0	0	0	0	0	0	pest or weed control at 250 g/ha [7]: 0%; plant injury at 15.625 g/ha [8]: 0%; plant injury at 62.5 g/ha [8]: 0%; plant injury at 250 g/ha [8]: 0%; pest or weed control at 15.625 g/ha [9]: 0%; pest or weed control at 62.5 g/ha [9]: 0%; pest or weed control at 250 g/ha [9]: 0%; pest or weed control at 15.625 g/ha [10]: 0%; pest or weed control at 62.5 g/ha [10]: 0%; pest or weed control at 250 g/ha [10]: 0%; pest or weed control at 15.625 g/ha [11]: 0%; pest or weed control at 62.5 g/ha [11]: 0%; pest or weed control at 250 g/ha [11]: 0%; pest or weed control at 15.625 g/ha [12]: 0%; pest or weed control at 62.5 g/ha [12]: 0%; pest or weed control at 250 g/ha [12]: 0%
CN1C[C@@H](c2ccc(C(F)(F)F)cc2)[C@H](C(=O)Nc2cccc(Cl)c2C#N)C1=O (racemic) [Compound 1645]	0	40	50	0	0	0	0	30	60	0	0	0	0	10	10	0	0	10	0	20	pest or weed control at 250 g/ha [7]: 70%; plant injury at 15.625 g/ha [8]: 0%; plant injury at 62.5 g/ha [8]: 0%; plant injury at 250 g/ha [8]: 0%; pest or weed control at 15.625 g/ha [9]: 0%; pest or weed control at 62.5 g/ha [9]: 70%; pest or weed control at 250 g/ha [9]: 80%; pest or weed control at 15.625 g/ha [10]: 0%; pest or weed control at 62.5 g/ha [10]: 0%; pest or weed control at 250 g/ha [10]: 0%; pest or weed control at 15.625 g/ha [11]: 0%; pest or weed control at 62.5 g/ha [11]: 40%; pest or weed control at 250 g/ha [11]: 40%; pest or weed control at 15.625 g/ha [12]: 0%; pest or weed control at 62.5 g/ha [12]: 0%; pest or weed control at 250 g/ha [12]: 0%
